Measured values from patent US8633166B2, “Methicillin-resistant Staphylococcus aureus active metabolites” (priority 2009, dated 2014).
Read-outs that look alike come from different tables or passages of the source.

Experiments:
Assay in all cases: In vitro MIC, broth microdilution (CLSI)
Type in all cases: cell-based
Streptococcus pyogenes = conditions: MHB II with 2% lysed horse blood
Method: (§1) All test articles were dissolved in DMSO. Stock solutions were prepared at 40-fold the highest concentration in the test plate. The final concentration of DMSO in the test system was 2.5%.
(§2) The medium employed for the MIC assay was Mueller Hinton II Broth (MHB II-Becton Dickinson, #212322, Lot #9044411) for most of the organisms. MHB II was supplemented with 2% lysed horse blood (Cleveland Scientific Lot #22299-1) to accommodate the growth of Streptococcus pneumoniae, Streptococcus pyogenes and Streptococcus agalactiae. The media were prepared at 102.5% the normal weight to offset the dilution created by the addition of 5 μL drug solution to each well of the microdilution panels.
(§3) The MIC assay method followed the procedure described by the Clinical and Laboratory Standards Institute (see Clinical and Laboratory Standards Institute. Methods for Dilution Antimicrobial, Susceptibility Tests for Bacteria That Grow Aerobically; Approved Standard—Eighth Edition. CLSI document M07-A8 [ISBN 1-56238-689-1]. Clinical and Laboratory, Standards Institute, 940 West Valley Road, Suite 1400, Wayne, Pa. 19087-1898 USA, 2009) and employed automated liquid handlers to conduct serial dilutions and liquid transfers. Automated liquid handlers included the Multidrop 384 (Labsystems, Helsinki, Finland), Biomek 2000 and Multimek 96 (Beckman Coulter, Fullerton Calif.).
(§4) The wells of Columns 2-12 of standard 96-well microdilution plates (Falcon 3918) were filled with 150 μL of DMSO on the Multidrop 384. The drugs (300 μL) were dispensed into Column 1 of the appropriate row in these plates. These would become the mother plates from which the test plates (daughter plates) were prepared. The Biomek 2000 completed serial transfers through Column 11 in the mother plates. The wells of Column 12 contained no drug and were the organism growth control wells in the daughter plates. The daughter plates were loaded with 185 μL of the appropriate test media (described above) using the Multidrop 384. The daughter plates were prepared on the Multimek 96 instrument which transferred 5 μL of drug solution from each well of a mother plate to each corresponding well of each daughter plate in a single step. Therefore, the test agents were maintained in solution in 100% DMSO up until the point of being added to the final test medium.
(§5) Standardized inoculum of each organism was prepared per CLSI methods (See Clinical and Laboratory Standards Institute. Performance Standards for Antimicrobial Susceptibility Testing; Nineteenth Informational Supplement. CLSI document M100-S19 [ISBN 1-56238-690-5]. Clinical and Laboratory Standards Institute, 940 West Valley Road, Suite 1400, Wayne, Pa. 19087-1898 USA, 2009.). Suspensions were prepared in MHB to equal the turbidity of a 0.5 McFarland standard. The suspensions were diluted 1:9 in broth appropriate to the organism. The inoculum for each organism was dispensed into sterile reservoirs divided by width (Beckman Coulter), and the Biomek 2000 was used to inoculate the plates. Daughter plates were placed on the Biomek 2000 work surface reversed so that inoculation took place from low to high drug concentration. The Biomek 2000 delivered 10 μL of standardized inoculum into each well. This yielded a final cell concentration in the daughter plates of approximately 5×10^5 colony-forming-units/mL. Thus, the wells of the daughter plates ultimately contained 185 μL of broth, 5 μL of drug solution, and 10 μL of bacterial inoculum. The final concentration of DMSO in the assay plate was 2.5%.
(§6) Plates were stacked 3 high, covered with a lid on the top plate, placed in plastic bags, and incubated at 35° C. for approximately 18 hours for most of the isolates. The Streptococcus plates were read after 20 hours of incubation. The microplates were viewed from the bottom using a plate viewer. […] The MIC was read and recorded as the lowest concentration of drug that inhibited visible growth of the organism.

Streptococcus pneumoniae = conditions: Streptococcus pneumoniae, MHB II with 2% lysed horse blood, read-out: MIC (converted)
Method: as §1, §2, §3, §4, §5, §6

Enterococcus faecium = conditions: read-out: MIC
Method: as §1, §2, §3, §4, §5, §6

Streptococcus agalactiae = conditions: Streptococcus agalactiae, MHB II with 2% lysed horse blood, read-out: MIC
Method: as §1, §2, §3, §4, §5, §6

[1] = test system: Staphylococcus epidermidis; conditions: Staphylococcus epidermidis, read-out: MIC
Method: as §1, §2, §3, §4, §5, §6

Staphylococcus aureus = conditions: Staphylococcus aureus, read-out: MIC (converted)
Method: as §1, §2, §3, §4, §5, §6

Enterococcus faecalis = conditions: read-out: MIC (converted)
Method: as §1, §2, §3, §4, §5, §6

Measured: MIC

CC(=O)NC[C@H]1CN(c2ccc(N3CCOCC3)c(F)c2)C(=O)O1 [Linezolid, reference compound]
4 µg/mL: Enterococcus faecium; Enterococcus faecium, MMX 1259, VSE, Mt. Sinai | Enterococcus faecium; MMX 4024, VRE, CHP | Enterococcus faecium; MMX 4048, VRE, UCLA | Staphylococcus aureus; ATCC29213, MMX 100, CLSI QC, ATCC 29213 | Staphylococcus aureus; MRSA, MMX 758, MRSA, CHP | Staphylococcus aureus; MRSA, MMX 2055, MRSA, UCLA | Staphylococcus aureus; MRSA, MMX 3894, MRSA, Mt. Sinai | Staphylococcus aureus; MSSA, MMX 753, MSSA, CHP | Staphylococcus aureus; MSSA, MMX 3856, MSSA, Mt. Sinai
0.5 µg/mL: Streptococcus pneumoniae; PRSP, MMX 748, PRSP, CHP | Streptococcus pneumoniae; PRSP, MMX 3953, PRSP, Mt. Sinai
2 µg/mL: Enterococcus faecium; Enterococcus faecium, MMX 0799, VSE, CHP | Enterococcus faecium; Enterococcus faecium, MMX 0845, VSE, UCLA | Enterococcus faecium; MMX 1238, VRE, Mt. Sinai | Streptococcus agalactiae; MMX 4106, CHP | [1]; MMX 3763, MSSE, Mt. Sinai | Staphylococcus aureus; MSSA, MMX 2063, MSSA, UCLA | Enterococcus faecalis; Enterococcus faecalis, ATCC29212, MMX 101, CLSI QC, ATCC 29212 | Enterococcus faecalis; Enterococcus faecalis, MMX 742, VSE, CHP | Enterococcus faecalis; Enterococcus faecalis, MMX 3199, VSE, UCLA | Enterococcus faecalis; MMX 3821, VRE, Mt. Sinai | Enterococcus faecalis; MMX 4131, VRE, CHP | Enterococcus faecalis; MMX 4160, VRE, UCLA
1 µg/mL: Streptococcus pyogenes; MMX 2572, UCLA | Streptococcus pyogenes; MMX 3928, Mt. Sinai | Streptococcus pyogenes; Streptococcus pyogenes, MMX 718, CHP, read-out: MIC | Streptococcus pneumoniae; ATCC49619, MMX 1195, CLSI QC, ATCC 49619 | Streptococcus pneumoniae; MMX 866, PSSP, CHP | Streptococcus pneumoniae; MMX 3130, PSSP, UCLA | Streptococcus pneumoniae; MMX 3937, PSSP, Mt. Sinai | Streptococcus pneumoniae; PRSP, MMX 3160, PRSP, UCLA | Streptococcus agalactiae; MMX 3743, Mt. Sinai | Streptococcus agalactiae; MMX 4093, UCLA | [1]; MMX 835, MSSE, UCLA | [1]; MMX 3703, MSSE, CHP | [1]; MRSE, MMX 762, MRSE, CHP | [1]; MRSE, MMX 826, MRSE, UCLA | [1]; MRSE, MMX 3752, MRSE, Mt. Sinai | Enterococcus faecalis; Enterococcus faecalis, MMX 3896, VSE, Mt. Sinai
